Where a name gives a salt, the structure may show the parent alone.

In one assay the test system is stomach-acid secretion. The experiment in a line: Stomach-acid secretion inhibitory action on rats (histamine-stimulated, perfused stomach). The assay is classed as in vivo, Wistar-type male rats. As to conditions: Rattus norvegicus, iv; 0.3, 1, 3, 10 and 30 mg/kg; histamine dihydrochloride 1 mg/kg/hr; probit method. The method, then:
(a) Stomach-Acid Secretion Inhibitory Action on Rats
After each of Wistar-type male rats was let abstain from food for 24 hours, the pylorus thereof was bound while the rat was paralyzed with urethane (1.5 g/kg s.c.), and a stomach perfusion cannula was inserted into the rat stomach. The rat stomach was perfused with a physiological salt solution through an oral catheter. The amount of stomach-acid secretion was measured by titrating the total acidity and pH of the perfusion solution. As an acid secretion stimulant, 1 mg/kg/hr of histamine dihydrochloride was continuously injected through the femoral vein to accelerate the acid secretion. Then, the effects of a variety of compounds were studied.
Each of test compounds as dissolved in dimethylformamide was intravenously administered to the rat in each of dosages of 0.3, 1, 3, 10 and 30 mg/kg through […].
There was calculated an inhibition percentage of acid secretion with respect to acid secretion before administration of each of the test compounds. An ED50 value was calculated from the inhibition percentage with respect to each dosage according to a probit method.

Another assay addresses T1, H^+ +K^+ ATPase (Sus scrofa, UniProt P19156).
T1 construct: prepared from the stomach of a pig; from tissue; host or cells: pig stomach
The experiment in a line: H+ + K+ ATPase inhibitory action. It is filed as biochemical. The note with it: pig stomach enzyme, protein 10 μg; pH 7.4, 37° C., 30 minutes. Here is the method:
(c) H^+ +K^+ ATPase Inhibitory Action
H^+ +K^+ ATPase (adenosinetriphosphatase)(protein: 10 μg) prepared from the stomach of a pig was added to a pipes-Tris [2-amino-2-(hydroxymethyl)-1,3-propandiol] buffer (pipes-Tris buffer)(pH 8.1) containing 2 mM piperazine N,N'-bis(2-ethane sulfonic acid). The resultant reaction solution was allowed to stand at a room temperature. Each of the test compounds was dissolved in dimethyl formamide, which was added to the H^+ +K^+ ATPase buffer such that the final concentration was 1%. The resultant reaction solution was reacted at a room temperature for 30 minutes. In the same manner, another reaction solution was prepared. Respectively added to the reaction solutions were 1 ml of a 75 mM pipes-TRIS buffer (pH 7.4) (containing 4 mM MgCl2, 4 mM Na2 ATP and 20 mM KCl) and 1 ml of a 75 mM pipes-Tris buffer (pH7.4) (containing 4 mM MgCl2 and 4 mM Na2 ATP). Thus, two kinds of samples were prepared and reacted at 37° C. for 30 minutes. Added to each of the samples was 0.3 ml of 40% trichloroacetic acid, thus completing the reaction. After the samples were subjected to centrifugal separation (3,000 rpm) for 10 minutes. The supernatant liquids were taken to produce inorganic phosphoric acids, of which amounts were measured according to a Fiske and Subbarow method [J. Biol. Chem. vol. 86,375 (1925)]. The amount of the inorganic phosphoric acid obtained from the pipes-Tris buffer containing no 20 mM KCl was deducted from the amount of the inorganic phosphoric acid obtained from the pipes-Tris buffer containing 20 mM KCl. The difference expressed in terms of unit protein per unit time was defined as an enzyme active value. The inhibition value (%) of each dosage was obtained from the control value and the enzyme active value at each dosage. Based on the inhibition value thus obtained, IC50 (the dosage of each test compound which achieves inhibition of 50%) was obtained.

T1 sequence (P19156 2-1034 limits assumed): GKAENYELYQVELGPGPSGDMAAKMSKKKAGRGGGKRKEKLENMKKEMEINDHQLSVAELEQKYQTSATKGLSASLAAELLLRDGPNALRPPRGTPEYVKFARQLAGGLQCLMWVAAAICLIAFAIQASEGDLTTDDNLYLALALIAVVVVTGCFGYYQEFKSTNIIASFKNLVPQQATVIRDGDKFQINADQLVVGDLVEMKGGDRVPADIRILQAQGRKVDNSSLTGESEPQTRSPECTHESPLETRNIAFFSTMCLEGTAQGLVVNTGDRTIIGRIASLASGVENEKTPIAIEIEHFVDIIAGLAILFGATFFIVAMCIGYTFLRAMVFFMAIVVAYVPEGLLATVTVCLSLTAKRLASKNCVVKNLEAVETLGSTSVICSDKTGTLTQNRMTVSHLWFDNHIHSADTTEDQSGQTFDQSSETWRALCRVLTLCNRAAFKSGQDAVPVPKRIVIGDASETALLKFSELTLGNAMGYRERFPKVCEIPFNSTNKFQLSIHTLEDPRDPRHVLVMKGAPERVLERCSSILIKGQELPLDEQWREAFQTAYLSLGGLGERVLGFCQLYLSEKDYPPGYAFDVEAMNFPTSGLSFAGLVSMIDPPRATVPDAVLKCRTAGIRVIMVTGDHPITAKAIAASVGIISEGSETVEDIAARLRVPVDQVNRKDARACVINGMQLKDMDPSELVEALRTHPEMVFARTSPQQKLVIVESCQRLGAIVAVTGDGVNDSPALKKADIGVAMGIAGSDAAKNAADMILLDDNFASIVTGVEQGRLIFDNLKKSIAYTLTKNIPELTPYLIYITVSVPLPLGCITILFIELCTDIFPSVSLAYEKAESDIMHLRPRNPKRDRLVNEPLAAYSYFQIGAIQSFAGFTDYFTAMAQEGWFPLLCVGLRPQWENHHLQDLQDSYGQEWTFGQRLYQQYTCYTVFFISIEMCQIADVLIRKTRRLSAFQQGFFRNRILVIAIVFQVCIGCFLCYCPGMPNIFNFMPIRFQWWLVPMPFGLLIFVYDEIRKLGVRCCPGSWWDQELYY
T1 sequence (P18434 whole entry partner): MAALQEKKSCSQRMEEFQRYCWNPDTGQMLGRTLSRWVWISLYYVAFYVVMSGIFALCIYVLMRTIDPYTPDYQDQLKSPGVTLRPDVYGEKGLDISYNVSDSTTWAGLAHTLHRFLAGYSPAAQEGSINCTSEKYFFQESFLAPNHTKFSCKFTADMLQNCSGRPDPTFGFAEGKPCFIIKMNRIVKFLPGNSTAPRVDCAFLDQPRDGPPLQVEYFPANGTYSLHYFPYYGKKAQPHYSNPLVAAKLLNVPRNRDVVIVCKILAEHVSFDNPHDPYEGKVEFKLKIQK

For orientation: ED50 means the dose that gives a 50% effect, or the effect in half of the subjects. Consider `C=CCNC(=O)c1cnc2c(OC)cccc2c1Nc1ccccc1C.Cl` [Test Compound 1, N-2-propenyl-8-methoxy-4-[(2-methylphenyl)amino]quinoline-3-carboxamide hydrochloride], for which, in the assay with stomach-acid secretion, the 50% effect level (ED50) was put at a dose of 6.72 mg/kg.

What is called IC50 is the midpoint of a concentration-inhibition curve. `C=CCNC(=O)c1cnc2c(OC)cccc2c1Nc1ccccc1CC` [Test Compound 2, N-2-propenyl-4-[(2-ethylphenyl)amino]-8-methoxyquinoline-3-carboxamide hydrochloride]: the IC50 at H^+ +K^+ ATPase came to 2200 nM.

On to `C=CCNC(=O)c1cnc2c(OC)cccc2c1Nc1ccccc1C(C)C` [Test Compound 3, N-2-propenyl-4-[(2-isopropylphenyl)amino]-8-methoxyquinoline-3-carboxamide hydrochloride], for which the IC50 at H^+ +K^+ ATPase is 4900 nM.

As for `C=CCNC(=O)c1cnc2c(OC)cccc2c1Nc1ccccc1SCCC` [Test Compound 5, N-2-propenyl-8-methoxy-4-[(2-propylthiophenyl)amino]quinoline-3-carboxamide hydrochloride], the IC50 at H^+ +K^+ ATPase was 1600 nM.
